Test results reported in ChEMBL document CHEMBL3507680, “University of Dundee, Gates Library screen for HepG2 cell viability”.

Test: Human HepG2 cell viability assay in 384 well format
Assay type: toxicity, cell-based
Set-up: dose 125 nL, time 70.5 hour; concentration not given beside the values
Details: HepG2 cells, read-out: Inhibition

Row | Compound | cytotoxicity at 70.5 h [%]
1 | O=C(c1ccccc1F)N1CCN(c2ccc(-n3cccc3)nn2)CC1 | -8.46
2 | O=C(c1cccnc1)N1CCN(c2ccc(-n3cccc3)nn2)CC1 | 0.575
3 | Cc1ccc(S(=O)(=O)NCCNc2cc(-n3cccc3)ncn2)c(C)c1 | -0.584
4 | CS(=O)(=O)N1CCCC12CCCN(C(=O)c1ccnnc1)C2 (configuration not stated) | -11.3
5 | COCC1c2nnn(CC3CC3)c2CCN1C(=O)c1sccc1C (configuration not stated) | -11.5
6 | COCC1c2nnn(CC3CC3)c2CCN1C(=O)c1cc(C)on1 (configuration not stated) | -12.7
7 | Cc1ccoc1C(=O)N1CCc2ncnc(-c3cnn(C)c3)c2CC1 | 24.7
8 | Cc1noc(C2CCC3(CCN(C(=O)c4ccnnc4)CC3)O2)n1 (configuration not stated) | -0.131
9 | CC(=O)N1CCc2ncc(CNC(=O)C3CCC3)n2CC1 | -2.29
10 | CCS(=O)(=O)N1Cc2ncn(CC3CC3)c2C(COC)C1 (configuration not stated) | -0.679
11 | CCN1CCc2cc(C(=O)N(C)C)c(NCC3CC3)nc2CC1 | 2.86
12 | CN1CC2(CCN(C(=O)C3CCC3)CC2)COc2ccccc2S1(=O)=O | -4.42
13 | CCN1CC2(CCN(C(=O)N(C)C)CC2)COc2ccccc2S1(=O)=O | 4.83
14 | Cc1cc(C(=O)N2CCc3ncnc(-c4cnn(C)c4)c3CC2)c(C)o1 | -7.85
15 | COCC1CN(CC2CC2)Cc2ncn(CC3CC3)c21 (configuration not stated) | 2.41
16 | Cc1noc(C2CCC3(CCN(C(=O)c4ncccn4)CC3)O2)n1 (configuration not stated) | 2.54
17 | O=C1CCCN1Cc1ncn2c1CN(C(=O)C1CC=CC1)CCC2 | -5.43
18 | O=C(NCC1CCOCC1)[C@@H]1C[C@@H]2[C@@H](CCN2Cc2ccoc2)O1 | 0.123
19 | Cc1noc(C2CCC3(CCN(C(=O)c4ccncn4)CC3)O2)n1 (configuration not stated) | 3.42
20 | CN(C)C(=O)c1cc2c(nc1NCC1CC1)CCN(CC1CC1)CC2 | 5.16
21 | O=C(NCC1CC1)[C@H]1CC[C@@H]2[C@@H](CCN2Cc2nccs2)O1 | 1.44
22 | CCn1ncc2c1C(COC)CN(Cc1ccc(C)o1)C2 (configuration not stated) | 2.21

Row | Compound | cytotoxicity at 70.5 h [%]
23 | CN(C)CCN1CCN(CC2CC2)c2ncccc2C1 | -3.26
24 | Cc1nccc([C@H]2C[C@@H]3CCN(S(C)(=O)=O)C[C@H]3O2)n1 | -0.795
25 | CCOC[C@@H]1CC[C@H]2[C@H](CCN2C(=O)c2ccncc2F)O1 | -1.37
26 | CNC(=O)N1CCC2(CC1)CC[C@@]1(C(=O)NC)CN(S(C)(=O)=O)C[C@@H]21 | -0.00397
27 | Cc1nccc([C@@H]2C[C@@H]3CCN(S(=O)(=O)N(C)C)C[C@H]3O2)n1 | 1.05
28 | Cc1ccc(S(=O)(=O)N2CCCC3(CCCN3S(C)(=O)=O)C2)cc1F (configuration not stated) | 0.261
29 | CNC(=O)[C@@]12CCC3(CCN(S(C)(=O)=O)CC3)[C@@H]1CN(C(C)=O)C2 | -0.353
30 | CNC(=O)[C@@]12CCC3(CCN(S(=O)(=O)C4CC4)CC3)[C@@H]1CN(C(C)=O)C2 | 20.2
31 | COCc1ncn2c1CN(C(=O)c1ccc[nH]1)CC2 | -4.65
32 | CNC(=O)[C@@]12CCC3(CCN(C(=O)C(C)C)CC3)[C@@H]1CN(S(C)(=O)=O)C2 | 2.4
33 | Cc1nccc([C@@H]2C[C@H]3CN(S(=O)(=O)c4ccccc4)C[C@H]3O2)n1 | -2.27
34 | CC(C)CC(=O)N1CCCC2(CC(C(=O)Nc3ccccc3)=NO2)C1 (configuration not stated) | -0.967
35 | O=C(Nc1ccccc1)C1=NOC2(CCCN(C(=O)C3CCCC3)C2)C1 (configuration not stated) | -1.79
36 | CC(C)(C)CC(=O)N1CCCC2(CC(C(=O)Nc3ccccc3)=NO2)C1 (configuration not stated) | -8.03
37 | O=C(C1CCOCC1)N1C[C@H](OCc2cccnc2)[C@H]2COC[C@H]21 | -5.49
38 | O=C(c1cscn1)N1C[C@H](OCc2cccnc2)[C@H]2COC[C@H]21 | -5.24
39 | Cc1ccc(C(=O)N2C[C@H](OCc3cccnc3)[C@H]3COC[C@H]32)cn1 | -2.21
40 | COc1ncccc1C(=O)Nc1nc2c(s1)CN(S(=O)(=O)C1CC1)CC2 | 3.95
41 | CS(=O)(=O)N1CCc2nc(NC(=O)Nc3c(F)cccc3F)sc2C1 | 0.946
42 | Cc1ccc(S(=O)(=O)NC2CNC(=O)C2)cc1C (configuration not stated) | 0.672
43 | COc1cccc(S(=O)(=O)NC2CNC(=O)C2)c1 (configuration not stated) | 1.68
44 | O=C(c1cnn2c1OCCC2)N1CCC2(CC1)OCCO2 | -1.08

Row | Compound | cytotoxicity at 70.5 h [%]
45 | COc1ccc(C)cc1NC(=O)Nc1cnc(N2CCN(C)CC2)nc1 | 16.2
46 | Cn1c(C(F)(F)F)nn(CCNC(=O)NCc2ccccc2)c1=O | 16.5
47 | Cc1noc(-c2ccc(N3CCCC(C(=O)N4CCSCC4)C3)nc2)n1 (configuration not stated) | 3.88
48 | O=C1CCSCC(C(=O)N2CCCC2)N1 (configuration not stated) | -2.31
49 | O=C1CCSCC(C(=O)N2CCN(C3CCCCC3)CC2)N1 (configuration not stated) | 0.692
50 | CN(C)S(=O)(=O)N1CCC(Oc2ccccn2)CC1 | 3.95
51 | CCOCC(=O)N1CCC(Oc2ccc(C(F)(F)F)cn2)CC1 | -4.36
52 | CCOCC(=O)N1CCC(Oc2ccc(Cl)cn2)CC1 | -4.45
53 | COc1ccccc1S(=O)(=O)N1CCC(Oc2cccnn2)CC1 | 3.7
54 | O=C(c1ccc(F)c(F)c1)N1CCCSCC1CN1CCCC1 (configuration not stated) | -0.49
55 | Cc1cnc2n(c1=O)CC(C(=O)NC1CC1)CS2 (configuration not stated) | 2.18
56 | Cc1cnc2n(c1=O)CC(C(=O)Nc1cccc3cccnc13)CS2 (configuration not stated) | -5.53
57 | CCc1c(C)nc2n(c1=O)CC(C(=O)Nc1nccs1)CS2 (configuration not stated) | 33.6
58 | COC(=O)N1CCc2ccc(NC(=O)c3cn(C)nn3)cc2C1 | -4.27
59 | O=C(CC1CCCC1)NCCn1ccc(-c2ccncc2)n1 | 9.19
60 | O=C(NCCn1ccc(-c2ccccn2)n1)c1ccncc1 | 11.3
61 | Cn1nc(CNC(=O)c2nc3ccccc3s2)c2c1CCOC2 | 8.85
62 | Cn1nc(CNC(=O)C2CC2)cc1C1CC1 | 8.22
63 | Cn1cnnc1S(=O)(=O)C1CCN(S(=O)(=O)C2CC2)CC1 | -1.29
64 | O=S(=O)(Nc1cnn(C2CCOCC2)c1)c1c(F)cccc1F | -1.01
65 | O=C(CSC1CCc2ccccc2NC1=O)NCCO (configuration not stated) | 2.81
66 | Cc1[nH]/c(=N\C(=O)c2csc(NCC(C)C)n2)sc1C | 5.69

Row | Compound | cytotoxicity at 70.5 h [%]
67 | O=C(Cn1cc(-c2ccccc2)ncc1=O)Nc1nnc[nH]1 | -13.5
68 | O=C(Cn1c(=O)nc2n1C(=O)N(c1ccccc1)C2)Nc1ccccc1 | -7.97
69 | COCCNC(=O)c1sc(Nc2ccc(Cl)cn2)nc1C | -13.2
70 | COCc1c(C(=O)O)nnn1Cc1cccc(C(F)(F)F)c1 | -18.5
71 | O=C(Cn1cc(C(=O)O)ccc1=O)Nc1ccc(F)cc1Cl | -23.3
72 | Cc1ccc(C2C3=C(COC3=O)Nc3[nH]nc(C)c32)cc1C (configuration not stated) | -3.38
73 | CC(C)CCN1CN=C(NS(=O)(=O)c2ccc(F)cc2)NC1 | -8.69
74 | Cc1c(C)n(Cc2ccncc2)c2nc3c(c(N)c12)CCCCC3 | 25.4
75 | CCOC(=O)C1CCN(C(=O)Cn2ccc3cc(Br)ccc32)CC1 | 24.7
76 | O=C(NCCN1CCCCC1)c1nc(-c2ccc3cc[nH]c3c2)no1 | -4.34
77 | Cn1c(=O)n(C)c2cc(C3SCC(=O)Nc4ccsc43)ccc21 (configuration not stated) | 38.6
78 | CC(C)NC(=O)c1ccc2c(c1)nc1n2CCN(C(C)C)C1 | -13.4
79 | COc1ccc(CNCC(C)Oc2ccccn2)cc1Br (configuration not stated) | -18.5
80 | COc1ccc(CN2CCC3(CC(=O)N(c4cccc(F)c4)C3)C2)cc1 (configuration not stated) | -10.4
81 | O=C(Nc1cnccn1)[C@H]1CC[C@@H]2[C@@H](CCN2Cc2ccoc2)O1 | 25.7
82 | Cc1ccc2c(n1)N(CCn1cccn1)CCN(S(C)(=O)=O)C2 | 27.2
83 | O=C(NCc1cnc2n1CCN(CC1CC1)C2)C1CC1 | 28
84 | CN1CC2(CCN(CC3CC3)CC2)COc2ccccc2S1(=O)=O | -1.33
85 | O=C(NCc1cccs1)[C@H]1CC[C@@H]2[C@@H](CCN2Cc2ccoc2)O1 | 2.32
86 | COCC(=O)N1CCN(CCn2cccn2)c2nc(C)ccc2C1 | 0.00132
87 | CN(C)C(=O)CN1CCC2(CC1)COc1ccccc1S(=O)(=O)N(C)C2 | 0.16
88 | O=C(NCc1cnc2n1CCN(Cc1nccs1)CC2)C1CCC1 | -2.78

Row | Compound | cytotoxicity at 70.5 h [%]
89 | COCC1CN(Cc2ccc(C)s2)Cc2nnn(C)c21 (configuration not stated) | 2.8
90 | Cc1ccc(CN2CCc3ncc(CNC(=O)C4CCC4)n3CC2)o1 | -2.7
91 | Cc1ccc(CN2Cc3nnn(C)c3C(COCC(=O)N(C)C)C2)s1 (configuration not stated) | -8.72
92 | Cc1ccc(CN2Cc3nnn(C)c3C(COCC3CC3)C2)s1 (configuration not stated) | 4.45
93 | Cc1csc(CN2C[C@@H]3COC[C@]3(COCC(=O)N(C)C)C2)n1 | -3.08
94 | CC(C)COC[C@H]1CC[C@H]2[C@H](CCN2C(=O)c2ccncc2F)O1 | -0.218
95 | CNC(=O)c1ccc2c(c1)C1(CCN(CC3CC3)CC1)C(=O)N2 | 1.88
96 | COCCN1CCC2(CC1)C(=O)Nc1ccc(C(=O)NC(C)C)cc12 | 1.35
97 | CNC(=O)CN1CC[C@H]2CN(C(=O)c3ccccc3C)C[C@H]2C1 | -3.61
98 | CC(C)CNC(=O)[C@H]1CCS(=O)(=O)[C@@H]2CN(Cc3ccc(F)cc3)C[C@H]12 | -10.2
99 | COc1ccc(CN2Cc3nnn(C)c3C(COCCN(C)C)C2)cc1 (configuration not stated) | 4.07
100 | Cc1nc(CN2CC[C@H](OCC3CC3)[C@@H]2Cc2cccnc2)cs1 | -1.82
101 | Cc1noc(C)c1CN1C[C@@H]2CCCO[C@@H]2[C@H](Nc2ccccn2)C1 | -4.07
102 | O=C(CC1CC1)N1CC[C@@H]2[C@H](CC1)N(Cc1cccnc1)CCS2(=O)=O | 5.01
103 | c1cncc(C2COC3(CCN(Cc4ccsc4)CC3)C2)c1 (configuration not stated) | -3.18
104 | CCS(=O)(=O)N1CC[C@@H]2[C@H](CC1)N(Cc1cccnc1)CCS2(=O)=O | -4.2
105 | CN(C)CCOCC1CN(Cc2ccccn2)Cc2nnn(C)c21 (configuration not stated) | 0.965
106 | CN(C)CCN1CCN(Cc2nccs2)Cc2cccnc21 | 2.78
107 | CN(C)CCN1CCN(Cc2cccs2)Cc2cccnc21 | -0.769
